For one assay, the target named is T1, Estrogen Receptor (ER) (Rattus norvegicus, UniProt P06211).
T1 construct: using rat uterine cytosol as a source of ER; from tissue; host or cells: rat uterus, cytosol fraction (30000 x g supernatant)
T1 sequence (P06211 1-600): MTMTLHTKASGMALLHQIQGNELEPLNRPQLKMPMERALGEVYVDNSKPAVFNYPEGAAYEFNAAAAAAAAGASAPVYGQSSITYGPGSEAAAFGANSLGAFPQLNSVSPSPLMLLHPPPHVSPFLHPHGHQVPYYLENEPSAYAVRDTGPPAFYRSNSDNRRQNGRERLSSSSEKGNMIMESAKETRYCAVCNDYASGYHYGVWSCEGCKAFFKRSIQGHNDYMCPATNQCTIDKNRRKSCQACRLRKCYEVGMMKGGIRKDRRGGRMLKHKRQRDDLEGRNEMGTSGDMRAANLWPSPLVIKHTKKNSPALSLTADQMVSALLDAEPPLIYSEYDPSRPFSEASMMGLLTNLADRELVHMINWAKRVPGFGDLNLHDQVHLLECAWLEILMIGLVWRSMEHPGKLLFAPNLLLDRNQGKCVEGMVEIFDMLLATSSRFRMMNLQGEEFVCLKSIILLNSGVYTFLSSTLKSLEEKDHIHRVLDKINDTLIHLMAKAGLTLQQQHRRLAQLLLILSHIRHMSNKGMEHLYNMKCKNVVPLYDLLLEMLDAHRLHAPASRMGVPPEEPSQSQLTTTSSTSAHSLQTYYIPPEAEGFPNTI
In words: Estrogen receptor binding assay, 3H-estradiol displacement from rat uterine cytosol. The following applies: 3H-estradiol displacement, cytosolic preparations of rat uterus; pIC50 of 4.00 = inactive; read-out: ER-RLB pIC50 (converted). The method, then:
Uteri (6-10 per batch) were isolated from Brown Norway rats (250-350g), washed free from blood in saline and homogenised in 10 mM Tris buffer (pH 7.4, 1.5 mM EDTA, 10% w/v glycerol, 1 mM phenylmethylsulfonylfluoride) using an Ultra Turrax homogeniser for 3 by 15 s bursts with intervals of 1 min on ice.
Nuclear material and cellular debris were removed by centrifugation at 750×g at 4° C. for 10 min (Sorvall RT7); the cytosol component was prepared by centrifugation at 30000×g for 120 min at 4° C. in a Beckman JM1 centrifuge. The cytosol was diluted to approximately 1 mg/ml protein (rat uterine extract) determined using the Bradford method (Biorad).
Separation of bound from free radioligand was achieved by the addition of 500 μL of dextran-coated charcoal (400 mg dextran clinical grade C and 2g of charcoal, Norit A in 100 mL of Tris buffer) and centrifugation at 4° C. in a Sorval RT7 at 2000×g for 10 min.

Assay [1] concerns Human airway smooth muscle (HASM) cells. In words: Thrombin-induced proliferation of human airway smooth muscle (HASM) cells, cell number after 48 h. In kind it is cell-based. The following applies: for IC50: Homo sapiens, negative log of the concentration that reduces the thrombin-induced proliferative response by 50%, pIC50 of 4.00 = inactive, read-out: HASM-Thr pIC50 (converted); for HASM- Thr pIC25 / HASM- Thr pIC75: two site model, thrombin-induced proliferation; for HASM- Thr pIC25: first phase (inhibition up to 50%); for HASM- Thr pIC75: second phase (inhibition up to 100%). The method, then: Human airway smooth muscle (HASM) cells were cultured from macroscopically normal bronchi (0.5-2 cm diameter) obtained from lung resection or heart-lung transplant specimens provided by the Alfred Hospital (Melbourne) according to methods published in detail previously (Fernandes et al., 1999).
Approximately 0.1 g of smooth muscle was stripped from the wall of the bronchus for each cell culture. Dissected tissue was immersed in Dulbecco's modified Eagle's medium (DMEM) (Flow Laboratories, Scotland), supplemented with 100 U/mL penicillin G (CSL, Australia) and 100 ug/mL streptomycin (CSL, Australia). The tissue was rinsed in phosphate buffered saline (PBS; Oxoid, England) and the airway smooth muscle was chopped into 2 mm^3 pieces and digested for 2 hours in DMEM containing elastase (0.5 mg/mL: Worthington Biochemical, USA) followed by a 12 hour incubation in DMEM containing collagenase (1 mg/mL) (Worthington Biochemical, USA), at 37° C. with agitation.
The resulting cell suspension was centrifuged and washed three times in phosphate buffered saline (PBS). Following the last centrifugation step, the cells were resuspended in 25 mL of DMEM supplemented with L-glutamine (2 mM: Sigma, USA), penicillin G (100 U/mL), streptomycin (100 μg/mL), amphotericin B (2 μg/mL: Wellcome, UK) and heat-inactivated FCS (10% v/v: CSL, Australia) and seeded into 25 cm^2 culture flasks. The primary isolates were incubated for 7 to 14 days to reach confluence.
Cells were harvested weekly by 10 min exposure to trypsin (0.5%: CSL, Australia) and EDTA (1 mM in PBS: BDH, Australia) and passaged at a 1:3 ratio into 75 cm^2 flasks.
The activity of the compounds has been established in cell culture by exploring their effects on mitogen-induced increases in cell number. We investigated the effects of 2MEO and its analogues, 4NO and 4NOM, on the proliferation of HASM cells in response to the proliferative stimulus of either thrombin of basic fibroblast growth factor (bFGF). Cells were seeded onto 6-well plates at a density of 1.5×10^4 cells cm^2, made quiescent by removal of serum-containing media for 24 hours and then stimulated for 48 h with either thrombin (0.3 U/ml) or bFGF (300 pM). The test compounds were pre-incubated with HASM cells for 30 minutes before the addition of thrombin. At the end of the 48 hour incubation period, cells were detached from the culture plate by trypsin (0.5% w/v in PBS containing 1 mM EDTA), incubated for 5 minutes at ambient temperature in PBS containing 0.5% (w/v) trypan blue, washed twice (2% FCS in PBS), isolated by centrifugation (12,000×g, 5 min) and resuspended in 200 μl 2% FCS in PBS for counting in a haemocytometer chamber.
Data are expressed as a percentage of the cell number in vehicle treated wells and are presented as the mean and standard error of the mean.
The potency of the compounds in regulating thrombin-induced proliferation of human airway smooth muscle (HASM) was assessed in cells maintained in culture as described above. The potencies are presented as pIC50 values (Column A of Table 4) denoting the negative log of the concentration that reduces the proliferative response by 50%. […] When the single phase model was determined to be more appropriate, the values of pIC25 and pIC75 were not calculated or shown in the table.

Data on 15 compounds can be found in patent US20070275935A1, “Estratriene Derivatives” (priority 2003, published 2007).

`COc1cc2c(cc1O)/C(=N/OCc1cccc(C(F)(F)F)c1)C[C@@H]1[C@@H]2CC[C@]2(C)/C(=N/O)CC[C@@H]12` [CP-DM-3-118, 2-methoxy-6-(3-trifluoromethylbenzyloxy)iminoestrone-17-oxime]: the IC50 is 20.9 µM at Estrogen Receptor (ER) and 2.95 µM in assay [1].

For the compound `COc1cc2c(cc1O)/C(=N/OCc1ccccc1[N+](=O)[O-])C[C@@H]1[C@@H]2CC[C@]2(C)[C@@H](O)CC[C@@H]12` [CP-DM-3-124, 2-methoxy-6-(2-nitrobenzyloxy)iminoestradiol], the IC50 on Estrogen Receptor (ER) is 0.891 µM. Moreover, in assay [1], the IC50 is 0.0447 µM, the “HASM- Thr pIC25” value worked out at 9.35 and the “HASM- Thr pIC75” value was found to be 6.36.

Consider `COc1cc2c(cc1O)/C(=N/OCc1ccncc1)C[C@@H]1[C@@H]2CC[C@]2(C)[C@@H](O)CC[C@@H]12` [CP-DM-4-16, 2-methoxy-6-(4-pyridylmethyloxy)iminoestradiol], for which, in assay [1], the IC50 was 1.45 µM, the “HASM- Thr pIC25” value is 6.57 and the “HASM- Thr pIC75” value was 5.19.

As for `COc1cc2c(cc1O)/C(=N/OCc1ccc(C#N)cc1)C[C@@H]1[C@@H]2CC[C@]2(C)[C@@H](O)CC[C@@H]12` [CP-DM-4-37, 6-(4-cyanobenzyloxy)imino-2-methoxyestradiol], the IC50 at Estrogen Receptor (ER) was 6.46 µM; in assay [1] it was 12.9 µM.

With `COc1cc2c(cc1O)/C(=N/OCc1cccc(C#N)c1)C[C@@H]1[C@@H]2CC[C@]2(C)/C(=N/O)CC[C@@H]12` [CP-DM-4-51, 2-methoxy-6-(3-cyanobenzyloxy)iminoestrone-17-oxime], the IC50 at Estrogen Receptor (ER) was 34.7 µM. In assay [1], the IC50 was 4.37 µM, the “HASM- Thr pIC25” value is 5.46 and the “HASM- Thr pIC75” value was determined as 5.26.

For the compound `COc1cc2c(cc1O)/C(=N/OCc1cccc(C#N)c1)C[C@@H]1[C@@H]2CC[C@]2(C)[C@@H](O)CC[C@@H]12` [CP-DM-4-52, 2-methoxy-6-(3-cyanobenzyloxy)iminoestradiol], the IC50 was 0.398 µM on Estrogen Receptor (ER) and 0.955 µM in assay [1].

Turning to `COc1cccc(CO/N=C2\C[C@@H]3[C@H](CC[C@]4(C)[C@@H](O)CC[C@@H]34)c3cc(OC)c(O)cc32)c1` [CP-DM-4-62, 2-methoxy-6-(3-methoxybenzyloxy)iminoestradiol], the IC50 at Estrogen Receptor (ER) was 1 µM. For the same compound, in assay [1], the IC50 is 2.19 µM, the “HASM- Thr pIC25” value was determined as 5.69 and the “HASM- Thr pIC75” value came to 5.63.

As for `COc1cc2c(cc1O)/C(=N/OCc1cccc(OC(F)(F)F)c1)C[C@@H]1[C@@H]2CC[C@]2(C)[C@@H](O)CC[C@@H]12` [CP-DM-4-63, 2-methoxy-6-(3-trifluoromethoxybenzyloxy)iminoestradiol], at Estrogen Receptor (ER), the IC50 was 0.135 µM. In assay [1], the IC50 was 0.347 µM, the “HASM- Thr pIC25” value is listed as 7.70 and the “HASM- Thr pIC75” value is reported as 5.62.

Regarding `COc1cc2c(cc1O)/C(=N/OCc1ccc(OC(F)(F)F)cc1)C[C@@H]1[C@@H]2CC[C@]2(C)[C@@H](O)CC[C@@H]12` [CP-DM-4-64, 2-methoxy-6-(4-trifluoromethoxybenzyloxy)iminoestradiol], the IC50 on Estrogen Receptor (ER) is 1.58 µM. Moreover, in assay [1], the IC50 was 2.45 µM, the “HASM- Thr pIC25” value is 6.56 and the “HASM- Thr pIC75” value is given as 4.81.

For `COc1cccc(CO/N=C2\C[C@@H]3[C@H](CC[C@]4(C)/C(=N/O)CC[C@@H]34)c3cc(OC)c(O)cc32)c1` [CP-DM-4-66, 2-methoxy-6-(3-methoxybenzyloxy)iminoestrone-17-oxime], the IC50 in assay [1] is 10 µM.

`COc1cc2c(cc1O)/C(=N/OCc1cccc(OC(F)(F)F)c1)C[C@@H]1[C@@H]2CC[C@]2(C)/C(=N/O)CC[C@@H]12` [CP-DM-4-67, 2-methoxy-6-(3-trifluoromethoxybenzyloxy)iminoestrone-17-oxime]: the IC50 in assay [1] was 10 µM.

Regarding `CO/N=C1\CC[C@H]2[C@@H]3C/C(=N\OCc4ccc([N+](=O)[O-])cc4)c4cc(O)c(OC)cc4[C@H]3CC[C@]12C` [CP-DM-4-75, 6-(4-nitrobenzyloxy)imino-2-methoxyestrone-17-methyloxime], the IC50 in assay [1] is 2.57 µM.

As for `COc1cc2c(cc1O)/C(=N/OCc1ccc(C)cc1)C[C@@H]1[C@@H]2CC[C@]2(C)/C(=N/O)CC[C@@H]12` [CP-DM-4-76, 2-methoxy-6-(4-methylbenzyloxy)iminoestrone-17-oxime], the IC50 in assay [1] was 4.27 µM.

In the case of `C[C@]12CC[C@@H]3c4ccc(O)cc4/C(=N/OCc4cc(F)cc(F)c4)C[C@H]3[C@@H]1C[C@@H](O)[C@@H]2O` [CP-DM-4-88, 6-(3,5-difluorobenzyloxy)iminoestriol], the IC50 in assay [1] is 15.8 µM.

For the compound `C#C[C@]1(O)CC[C@H]2[C@@H]3C/C(=N\OCc4ccc([N+](=O)[O-])cc4)c4cc(O)ccc4[C@H]3CC[C@@]21C` [CP-DM-4-89, 6-(4-nitrobenzyloxy)imino-17-ethinyl-estradiol], at Estrogen Receptor (ER), the IC50 was 5.62 µM.
